Assays:
[1] = tested on: human pancreatic ductal tissue cultures; experiment: Insulin production by ELISA, human ductal tissue cultures (Example 3); format: cell-based
Protocol: Samples are 5 μg total protein in duplicate and measured by ELISA assay.
Values are mean insulin units (of duplicate samples) as measured by ELISA assay.
Human pancreatic tissue was treated as described in Example 1 and Insulin production was measured by ELISA assay. FIGS. 5 and 6 show the results of this experiment to show a dose response and to again compare the effect of HIP2 on the two different fractions of tissue as compared to the hamster INGAP sequence and a scrambled negative peptide sequence. […] The results in FIG. 5 were generated using 5 μg of each peptide, while the results in FIG. 6 were acquired using 0.002 μg of each peptide.

[2] = tested on: human pancreatic progenitor cells; experiment: Inverted microscopy of human ductal/progenitor tissue cultures (Example 4); format: cell-based
NOD mice = experiment: NOD mouse model of type 1 diabetes (Example 5); format: in vivo; details: 250 ug/dose i.p. twice daily, 28 days, with anti-CD3, vs other test agents
Source text: The non-obese diabetic (NOD) mouse strain has long been studied as an excellent model of type 1 diabetes because it spontaneously develops a disease that is very similar to the human condition. Diabetes in NOD mice is mediated by inflammatory autoreactive T cells that recognize pancreatic islet antigens and escape central and peripheral tolerance. In a parental colony of NOD mice, incidence of diabetes in female NOD mice is typically 75-90% by 30 weeks but may exceed 90% in some cohorts. In this example, 50 female NOD mice, ranging from 13-14 weeks old at the outset of the study, are used to test the effectiveness of HIP2 as compared to other test agents. Due to the unexpected variability of the degree of onset of disease, the number used in this example (50 female mice) is considered to be the minimum needed to result in a sufficient number of mice that will onset with disease within the timeframe of the study.
Animals were group housed in compliance with the National Research Council “Guide for the Care and Use of Laboratory Animals”. The animals received 12 hours light/12 hours dark, except when room lights were turned on during the dark cycle to accommodate study procedures. Room temperature was maintained between 18 to 26° C. at all times. […]
Blood glucose levels are measured every 3 days and tracked to evaluate differences in glucose levels.

[3] = tested on: pancreatic islets of treated mice; experiment: Quantitative immunohistochemistry image analysis of mouse pancreata (Example 7); format: in vivo; details: vs control
Source text: The islet mass of the placebo group was 854,362 μm (2) compared with 2,161,782 μm (2) in HIP-treated mice.
Islet size was not different between HIP treated and control group, whereas, islet number and mass was increased.

[4] = Stability of peptide in isotonic saline; format: physicochemical; details: 20° C. in isotonic saline
Protocol: Further, HIP2, may be stably stored for long periods of time.
HIP2, HIP1, HIP, controls and progenitor fractions were cultured over 10 days, according to standard protocol. Briefly, pancreata from adult human cadaveric organ donors were obtained through the local organ procurement organization. Islets were isolated according to established protocols described by Bonner-Weir and Jamal. (Bonner-Weir et al. Pediatric Diabetes: 2004; 5 (Suppl 2): 16-22. Jamal et al. Cell Death Differ. 2005 July; 12(7): 702-12). HIP2, HIP1, HIP and INGAP were synthesized by Bachem Bioscience, Malvern, Pa. and were quality tested by HPCL to be greater than 95% pure. Each peptide was provided in lyophilized powder and was resuspended in isotonic saline solution. Stock solutions were made so that only 1-2 ul aliquots were added to primary cell cultures to reach the final concentrations provided below. […] HPLC data confirmed that the peptides remained stable in the isotonic saline after the freeze/thaw cycles.

HIP2: Human proIslet Peptide, fragment of human REG3A, in purified, synthetic, or recombinant form (SEQ ID NO:4) (IGLHDPTQGTEPNG; Fragment of naturally occurring human REG3 protein)
effect of the higher concentration on insulin production ([1]; ductal cultures): more profound effect | insulin production (FIG. 5) ([1]; ductal cultures, after 10 days, Rosenberg protocol, 5 μg, vs SEQ ID NO:1 and SEQ ID NO:5): increased insulin production | insulin production (FIG. 8B) ([1]; ductal cultures, two concentrations (3 μM and 1 mM), vs SEQ ID NO:1 and SEQ ID NO:5): increased insulin production | induction of insulin production compared with INGAP or scrambled peptide ([1]; in each of the examples (ductal and islet fractions)): more effectively | morphology of ductal tissue culture fraction (FIG. 4) ([2]; after treatment, just before lysis and RIA): Morphological changes show islet like structure | morphology of progenitor tissue cultures (FIG. 7A) ([2]; day 2 of treatment (day 12)): starting to bud at one end where a progenitor cell resides | morphology of progenitor tissue cultures (FIG. 7B) ([2]; day 6 of treatment (day 18)): darkening of the budding portion of the ductal epithelial cyst indicates the differentiation of cells | islet structure formation (micrograph, FIG. 4A) ([2]; pancreatic ductal tissue fraction culture, six days of culture with peptide): New islet structure has formed | blood glucose levels (NOD mice): pronounced reduction | insulinitis in pancreas (NOD mice): decreased showing of insulinitis | total islet mass (qualitative) [3]: increased total islet mass | total islet number (qualitative) [3]: increased total islet number | storage stability [4]: stable for months

From US8785400B2, “Methods and compositions relating to islet cell neogenesis” (CureDM Group Holdings, LLC, priority 2006, dated 2014)
